Experimental data taken from patent publication US20180346879A1, “GENERATION OF MUSCLE-LINEAGE CLELS FROM STEM CELLS” (GENEA IP HOLDINGS PTY LIMITED, priority 2015, published 2018).

What was measured:
Type in all cases: cell-based
[1] = tested on: GENEA019 human embryonic stem cells; test: Myogenic induction with Wnt pathway modulators, Hoechst and Pax3 staining; settings: modulator 1 μM in medium with Y-27632 10 μM and Alk5 inhibitor 2 μM; 9 days
Protocol: GENEA019 human embryonic stem cells were plated in Skeletal Muscle Cell Basal Medium (Lonza) with Skeletal Muscle Cell Growth Supplement (Lonza) and horse serum (5%) supplemented with Y-27632 (10 μM) and Alk5 inhibitor (2 μM), and a series of Wnt pathway modulators, including CHIR99021 (1 μM), AZD1080 (1 μM), IWP-L6 (1 μM), D4476 (1 μM), and AT13148 (1 μM). After 9 days in culture, cells were fixed and stained for DNA (Hoechst) and Pax3.

[2] = tested on: GENEA015 and GENEA019 human embryonic stem cells; test: Kinase inhibitor dose range in myogenic induction, Hoechst and Pax7 staining; settings: dose range from 10 nM to 1 μM; 4 days; medium with Y-27632, CHIR99021, Alk5 inhibitor
Protocol: In addition to LRRK2-IN-1, various other kinase inhibitors were tested in a dose range from 10 nM to 1 μM. Cells were fixed after 4 days and stained for DNA (Hoechst) and Pax7.

[3] = tested on: GENEA019 and GENEA067 human embryonic stem cell lines; test: Myogenic induction with or without LRRK2-IN-1, phase contrast microscopy; settings: LRRK2-IN-1 1 μM, suppresses flat contaminating cells with large cytoplasms
Description: (§1) After 9 days, cells were fixed and stained for DNA (Hoechst) and Pax3.
The same experiment was repeated using GENEA019 and GENEA067 human embryonic stem cell lines. Cell populations were observed by phase contrast microscopy.

[4] = tested on: GENEA002, GENEA015, and GENEA019 human embryonic stem cell lines; test: Myogenic induction in MCDB media with optional THI, FGF2 or LRRK2-IN-1, Hoechst, Pax3 and Pax7 staining; settings: 4 days; for cell proliferation (FIGS. 15A-F) / yield of Pax3/7-positive cells (FIGS. 15A-F): 5 μm THI or 5 ng/L FGF2 added to MCDB media, collagen I
Protocol: GENEA002, GENEA015, and GENEA019 human embryonic stem cell lines were plated on collagen I-coated culture dishes in the following culture media:
4) MCDB FA ITS: same as MCDB FA with insulin/transferrin/selenium (ITS, 100×)
A control compound, 5 μm THI (2-acetyl-4(5)-(1,2,3,4-tetrahydroxybutyl)imidazole), or […] FGF2 was optionally added to the media. The LRRK2 inhibitor, LRRK2-IN-1 (1 μM), was optionally added to MCDB MinFA medium. Cells were fixed after 4 days and stained for DNA (Hoechst), Pax3 and Pax7.

[5] = tested on: GENEA019 human embryonic stem cells; test: Myogenic induction with or without LRRK2-IN-1, Hoechst and Pax3 staining; settings: LRRK2-IN-1 1 μM added to medium with Y-27632, CHIR99021, Alk5 inhibitor; 9 days
Description: as §1

[6] = tested on: GENEA019 and GENEA067 human embryonic stem cells; test: Differentiation with continuous ROCK inhibition or with ROCK inhibitor removed after attachment; settings: Y-27632 (10 μM) removed one day after plating, compared with continuous presence
Protocol: Cells were either differentiated further in the same medium with media changes every other day, or one day after plating and after cells had attached, cells were changed to and maintained in the same culture medium but without the ROCK inhibitor, Y-27632 (10 μM).

[7] = tested on: GENEA019 human embryonic cells; test: Myogenic induction on extracellular matrix molecules (collagen I, laminins), Hoechst and Pax7 staining; settings: plate coating; medium with Y-27632 10 μM, CHIR99021 3 μM, Alk5 inhibitor 2 μM; 9 days
Description: After 9 days, cells were fixed and stained for DNA (Hoechst) and Pax7.

Molecule: N#Cc1ccc2[nH]c(O)c(-c3ccc(CN4CCOCC4)cn3)c2c1 [AZD1080]
- myogenic induction / Pax3-positive cells (FIGS. 17A and 17B) [1]: promoted myogenic induction and resulted in Pax3-positive cells

Molecule: Cc1c[nH]c(-c2cnc(NCCNc3ccc(C#N)cn3)nc2-c2ccc(Cl)cc2Cl)n1 [CHIR99021]
- myogenic induction / Pax3-positive cells (FIGS. 17A and 17B) [1]: promoted myogenic induction and resulted in Pax3-positive cells

Molecule: O=C(CSc1nc2c(c(=O)n1-c1ccccc1)SCC2)Nc1ccc(-c2ccccc2)cn1 [IWP-L6]
- myogenic induction / Pax3-positive cells (FIGS. 17A and 17B) [1]: blocked myogenic induction

Molecule: COc1cc(C(=O)N2CCC(N3CCN(C)CC3)CC2)ccc1Nc1ncc2c(n1)N(C)c1ccccc1C(=O)N2C [LRRK2-IN-1]
- formation of Pax7-positive cells (FIGS. 16A and 16B) [2]: strongly promoted the formation of Pax7-positive cells in a dose-dependent manner
- purity of cell populations (FIG. 14) [3]: purer cell populations
- proportion of Pax3-positive and Pax7-positive cells (FIGS. 15A-F) ([4]; LRRK2-IN-1 1 μM added to MCDB MinFA medium): strong increase
- cell proliferation (FIG. 13A) [5]: promoted cell proliferation
- expression of Pax3 (FIG. 13B) [5]: increased expression of Pax3

Molecule: CC(=O)c1ncc(C(O)C(O)C(O)CO)[nH]1 (stereo not shown) [THI, 2-acetyl-4(5)-(1,2,3,4-tetrahydroxybutyl)imidazole]
- cell proliferation (FIGS. 15A-F) [4]: neither THI nor FGF2 enhanced
- yield of Pax3/7-positive cells (FIGS. 15A-F) [4]: neither THI nor FGF2 enhanced

Molecule: C[C@@H](N)[C@H]1CC[C@H](C(=O)Nc2ccncc2)CC1 [Y-27632]
- cell growth without continuous ROCK inhibition (FIG. 18) [6]: significantly growth retarded
- cell population homogeneity during differentiation without continuous ROCK inhibition [6]: highly heterogeneous cell populations

Molecule: FGF2: fibroblast growth factor family member
- cell proliferation (FIGS. 15A-F) [4]: neither THI nor FGF2 enhanced
- yield of Pax3/7-positive cells (FIGS. 15A-F) [4]: neither THI nor FGF2 enhanced

Molecule: laminin 521: extracellular matrix molecule coating tissue culture plates
- Pax7-positive satellite-like cell sub population (FIG. 12A) [7]: favor a satellite-like cell sub population that is Pax7-positive
- cell proliferation (FIG. 12B) [7]: promote cell proliferation
